Key:
[1] = Phase 1 multiple ascending dose study (Part B), blood pressure in healthy participants; type: in vivo, human; details: MAD, 14-day treatment period
Description: (§1) The study was performed in 3 parts in 112 healthy male and female participants, including 24 Japanese participants. Female participants were to be not of childbearing potential. The present study was designed to evaluate the safety and tolerability, PK, and exploratory PD of an oral suspension of Compound A. Parts A and B (Cohort B1 only) enrolled healthy participants and was conducted at a site in The Netherlands and Part B (Cohort B2 to B5) enrolled healthy non-Japanese participants and was conducted at a site in the United Kingdom (UK). Part C enrolled healthy Japanese participants and was conducted at the same site in the UK.
Part B was a MAD study in a planned number of 6 sequential dose escalation cohorts (10 mg QD, 30 mg QD, 30 mg BID, 60 mg BID, 125 mg BID, and ≤250 mg BID) of 8 healthy participants (6 active+2 placebo) each, under fasted conditions. However, Cohort B6 (≤250 mg BID) was cancelled because sufficient safety and PK data had been obtained at doses up to 125 mg BID. […]
Physical examinations, vital sign measurements (including orthostasis testing in Cohort A6, Cohort B3 to B5, and C1 to C3 at selected time points), 12-lead electrocardiogram (ECG), and clinical laboratory evaluations were performed at selected times throughout the study. […] Participants were closely monitored for adverse events (AEs). […]

[2] = Phase 1 multiple ascending dose study (Part C), blood pressure in healthy Japanese participants; type: in vivo, human
Description: as §1
Part C was a MAD study in 3 sequential dose escalation cohorts (30 mg BID, 60 mg BID, and 90 mg BID) of 8 healthy Japanese participants (6 active+2 placebo) each. Eligible participants in Cohorts C1 to C3 received study drug (Compound A or placebo) administered orally for 14 days.
Physical examinations, vital sign measurements (including orthostasis testing in Cohort A6, Cohort B3 to B5, and C1 to C3 at selected time points), 12-lead electrocardiogram (ECG), and clinical laboratory evaluations were performed at selected times throughout the study. In addition, Holter monitoring was performed for the first 24 hours post dose on Day 1 in Part A (not in FE/pH cohort), and also for the first 24 hours post dose on Day 1 and Day 14 in Parts B and C. Participants were closely monitored for adverse events (AEs). Blood samples were collected for up to 14 days (follow-up visit) after (last) study drug administration for PK analysis. In addition, blood and urine were collected for exploratory biomarker assessments and for biobanking of samples for potential analyses. Urine was collected for potential PK analysis for up to 96 hours after a single dose of Compound A or placebo was administered in the SAD part, and for up to 24 hours after the first (morning) dose of study drug on Day 1 and for up to 24 hours after the last (morning) dose of study drug on Day 14 in the MAD parts.

[3] = tested on: participants with IPF; experiment: Phase 2 study, IPF cohort: efficacy (ppFVC, FVC); type: in vivo, human; details: for Rate of change in ppFVC over 26 weeks: 60-mg arm
Description: A total of 278 participants with IPF were randomized and 276 participants were treated as of theinal analyses data cut-off (4 Aug. 2022). Male and female participants ≥40 years of age with IPF and percent predicted forced vital capacity (ppFVC) ≥40% and percent predicted DLCO (ppDLCO) ≥25%; diagnosed within 7 years of screening; having a centrally-read chest HRCT obtained at screening that was consistent with UIP or probable UIP, or having a lung biopsy consistent with UIP were eligible to enter the study. The mean baseline ppFVC for all subjects was 76.5%. In the primary IPF cohort, participants were randomized (1:1:1) to receive 30 mg or 60 mg Compound A or placebo (PBO) twice daily for 26 weeks. Participants were stratified by standard of care (SoC) IPF therapy (pirfenidone versus nintedanib versus none) and region (Japan versus Rest of World) at randomization.
The primary objective of the study was to determine the rate of change in ppFVC from baseline to Week 26. The primary objective was evaluated with a two estimand framework to handle the intercurrent event of dose reduction to 10 mg BID or matching PBO when pre-specified low BP criteria is met. The primary estimand is adopted to estimate treatment effect when dose reduction is implemented. The supplementary estimand is adopted to estimate the effect of treatment without dose reduction.
Analysis Strategy: The primary estimand was to evaluate the efficacy of Compound A at 30 mg or 60 mg twice daily, compared to PBO in IPF participants who met the enrollment criteria, with or without use of SoC. The rate of decline in ppFVC (%) from baseline to Week 26 was compared using the difference between each dose and PBO as a population level summary regardless of dose reduction or treatment discontinuation for any reason (treatment policy strategy).
Analysis Strategy: The supplementary estimand for the primary objective is to evaluate the efficacy of Compound A at 30 mg or 60 mg twice daily without dose reduction, compared to the PBO in IPF subjects who met the enrollment criteria, with or without use of SoC. The rate of decline in ppFVC (%) from baseline to Week 26 has been compared using the difference between each dose and PBO as a population level summary regardless of treatment discontinuation for any reason (treatment policy strategy). In the event of dose reduction, data collected after dose reduction will not be considered relevant to the treatment effect of interest and therefore, will be treated as missing (while-on-treatment strategy).

[4] = tested on: participants with PPF; experiment: Phase 2 study, PPF cohort: efficacy (ppFVC, FVC); type: in vivo, human; details: for Relative reduction: 60 mg v placebo
Description: (§2) A total of 123 participants with PPF were randomized. Participants (age ≥21 years) were randomized (1:1:1) to receive 30 mg or 60 mg Compound A or PBO twice daily for 26 weeks. […] Immunosuppressive medications (mycophenolate mofetil, mycophenolic acid, azathioprine and/or tacrolimus) were permitted only if dosing is stable for ≥6 months prior to screening. If receiving antifibrotic agents pirfenidone or nintedanib, patients had to receive a stable dosage for ≥3 months prior to screening and during the screening period; if not receiving pirfenidone or nintedanib, patients had to be naive to both drugs or not have received either 4 weeks prior to Day 1. A total of 47 (38.2%) subjects were receiving antifibrotic treatment (with or without immunosuppression therapy). Of those subjects, 34 were being treated with nintedanib and 13 with pirfenidone. Participants were stratified by usual interstitial pneumonia (UIP) pattern (presence versus absence) and background therapy (antifibrotics +/−ILD-targeted immunosuppression versus ILD-targeted immunosuppression alone versus none).UIP pattern was present in 52% of subjects and unclassifiable ILD was he most common disease categorization.
The study was not powered to detect statistical significance (no formal testing). No target effect size was defined in the study design. There were two estimand approaches for analysis:
Treatment Policy: Effect of treatment with dose reduction as part of treatment regimen.
While-On Treatment: Effect of treatment without dose reduction.
The main efficacy endpoint, rate of FVC decline (in […]) from baseline to wk-26 in the PPF cohort, was estimated using a linear mixed-effects model utilizing all FVC timepoints. It was analyzed under a primary estimand (utilizing all data, treatment policy strategy), and under supplementary estimand (utilizing all data up to the point of dose reduction, while-on-treatment strategy). Analysis was performed in the overall population as well as in sub-groups by 1) background anti-fibrotic treatment or not 2) UIP radiographic pattern (presence or not). The mean baseline ppFVC was 66.700 for the PPF cohort.

[5] = Phase 2 study, PPF cohort: safety and blood pressure reduction criteria; type: in vivo, human
Description: as §2
Patient is experiencing any of the following, confirmed by retest within 15 minutes: • Seated systolic blood pressure <85 mmHg • Seated diastolic blood pressure <55 mmHg • Orthostatic hypotension
Patient is experiencing symptoms that, in the investigator's opinion, could be associated with a reduction in blood pressure and is also experiencing at least one of the following, confirmed by retest within 15 minutes: • Seated systolic blood pressure <100 mmHg or seated diastolic blood pressure <60 mmHg • Decrease of seated systolic blood pressure of ≥20 mmHg from the previous visit or decrease of seated diastolic blood pressure of ≥10 mmHg from the previous visit • Orthostatic hypotension • Orthostatic tachycardia

[6] = Effect of single and multiple ascending doses of Compound B on blood pressure; type: in vivo
Text: and is described in U.S. Patent Application Publication No. 2010/0311799. Single ascending dose of Compound B caused a drop in blood pressure starting ˜1.25 hr post dose (FIG. 5).

[7] = tested on: patients with IPF; details: cited from earlier work
[8] = tested on: patients with PPF; details: 52-week study period; cited from earlier work

CCCN(C)C(=O)OCc1c(-c2ccc(O[C@H]3CCC[C@H](C(=O)O)C3)c(C)n2)nnn1C [Compound A, (1S,3S)-3-((2-methyl-6-(1-methyl-5-(((methyl(propyl)carbamoyl)-oxy)methyl)-1H-1,2,3-triazol-4-yl)pyridin-3-yl)oxy)cyclohexane-1-carboxylic acid]
Magnitude of BP reductions with repeated dosing [1]: no clear changes in the magnitude of BP reductions with repeated dosing | DBP, Baseline ([2]; Japanese MAD 30 mg BID (C1)): 8.8 ± 5.12 mmHg | DBP, Reduction ([2]; Japanese MAD 30 mg BID (C1)): 72.2 ± 3.87 mmHg | DBP, Baseline ([2]; Japanese MAD 60 mg BID (C2)): 8.2 ± 10.40 mmHg | DBP, Reduction ([2]; Japanese MAD 60 mg BID (C2)): 73.8 ± 6.18 mmHg | DBP, Baseline ([2]; Japanese MAD 90 mg BID): 8.0 ± 8.22 mmHg | DBP, Reduction ([2]; Japanese MAD 90 mg BID): 70.7 ± 7.58 mmHg | Dose dependence of BP reduction ([2]; Japanese MAD cohorts): no clear Compound A dose-dependent BP reduction trend | Treatment response vs PBO (rate of decline of ppFVC and FVC) ([3]; 60 mg BID, Week 26, overall population): favorable treatment responses | Relative treatment benefit vs PBO (ppFVC) ([3]; 60 mg BID, primary estimand, not on background SoC): 113% | Relative treatment benefit vs PBO (ppFVC) ([3]; 60 mg BID, primary estimand, on background SoC): 39% | Relative treatment benefit vs PBO (ppFVC) ([3]; 60 mg BID, supplementary estimand, not on background SoC): 123% | Relative treatment benefit vs PBO (ppFVC) ([3]; 60 mg BID, supplementary estimand, on background SoC): 44% | Rate of change in ppFVC over 26 weeks ([3]; treatment policy strategy): −1.2% | Rate of change in ppFVC over 26 weeks ([3]; while-on-treatment strategy): −1.1% | Treatment difference in rate of change in ppFVC, 60-mg arm vs placebo ([3]; treatment policy strategy): 1.4% | Treatment difference in rate of change in ppFVC, 60-mg arm vs placebo ([3]; while-on-treatment strategy): 1.8% | Relative reduction ([4]; Anti-fibrotic subgroup): 75% | Relative reduction ([4]; No antifibrotic subgroup): 63% | Relative reduction ([4]; Non UIP subgroup): 84% | Relative reduction ([4]; UIP subgroup): 54% | Relative reduction ([4]; overall): 69% | Rate of change in ppFVC over 26 weeks ([4]; 30-mg arm, treatment policy strategy): −2.7% | Rate of change in ppFVC over 26 weeks ([4]; 30-mg arm, while-on-treatment strategy): −2.5% | Rate of change in ppFVC over 26 weeks ([4]; 60-mg arm, treatment policy strategy): −1.1% | Rate of change in ppFVC over 26 weeks ([4]; 60-mg arm, while-on-treatment strategy): −1.3% | Treatment difference 60 mg v placebo in rate of decline in ppFVC ([4]; Non UIP subgroup, baseline to Week 26): 3.80 | Treatment difference in rate of change in ppFVC, 60-mg vs placebo ([4]; treatment policy strategy): 3.2% | Treatment difference in rate of change in ppFVC, 60-mg vs placebo ([4]; while-on-treatment strategy): 2.9% | Low BP thresholds ("events") ([5]; 30 mg): 30% | Deaths due to TEAEs ([5]; 30 mg (n = 40)): 0 no. | Dizziness ([5]; 30 mg (n = 40)): 0 no. | Hypertension ([5]; 30 mg (n = 40)): 0 no. | Deaths due to TEAEs ([5]; 60 mg (n = 42)): 0 no. | Discontinuations due to TEAEs ([5]; 60 mg (n = 42)): 0 no. | Dyspnea ([5]; 60 mg (n = 42)): 0 no. | Rash ([5]; 60 mg (n = 42)): 0 no. | Vomiting ([5]; 60 mg (n = 42)): 0 no.

Cc1noc(-c2ccc(-c3ccc(C4(C(=O)O)CC4)cc3)cc2)c1NC(=O)O[C@H](C)c1ccccc1 [Compound B, sodium (R)-1-(4′-(3-methyl-4-(((1-phenylethoxy)carbonyl)amino)isoxazol-5-yl)-[1,1′-biphenyl]-4-yl)cyclopropane-1-carboxylate]
Normalization of blood pressure ([6]; multiple days of dosing (FIG. 6)): ~3 days | Start of drop in blood pressure post dose ([6]; single ascending dose (FIG. 5)): ~1.25 h

COC(=O)c1ccc2c(c1)NC(=O)/C2=C(\Nc1ccc(N(C)C(=O)CN2CCN(C)CC2)cc1)c1ccccc1 [nintedanib]
Decline in lung function [7]: significantly reduce the decline in lung function | Progression of lung fibrosis vs placebo (annual rate of decline in FVC) [8]: slower progression of lung fibrosis than those who received placebo

Cc1ccc(=O)n(-c2ccccc2)c1 [pirfenidone]
Decline in lung function [7]: significantly reduce the decline in lung function

Reference: patent publication US20240252476A1, “LPA1 ANTAGONISTS FOR TREATING INTERSTITIAL LUNG DISEASE” (Bristol-Myers Squibb Company, priority 2022, published 2024)
